Consider 19 compounds from patent US20210395239A1 (Hoffmann-La Roche Inc., priority 2018, published 2021).

For this assay, the target named is T1, human TLR8 (Homo sapiens, UniProt Q9NR97).
T1 construct: host or cells: HEK293 (HEK-Blue hTLR8)
T1 sequence (Q9NR97 27-1041): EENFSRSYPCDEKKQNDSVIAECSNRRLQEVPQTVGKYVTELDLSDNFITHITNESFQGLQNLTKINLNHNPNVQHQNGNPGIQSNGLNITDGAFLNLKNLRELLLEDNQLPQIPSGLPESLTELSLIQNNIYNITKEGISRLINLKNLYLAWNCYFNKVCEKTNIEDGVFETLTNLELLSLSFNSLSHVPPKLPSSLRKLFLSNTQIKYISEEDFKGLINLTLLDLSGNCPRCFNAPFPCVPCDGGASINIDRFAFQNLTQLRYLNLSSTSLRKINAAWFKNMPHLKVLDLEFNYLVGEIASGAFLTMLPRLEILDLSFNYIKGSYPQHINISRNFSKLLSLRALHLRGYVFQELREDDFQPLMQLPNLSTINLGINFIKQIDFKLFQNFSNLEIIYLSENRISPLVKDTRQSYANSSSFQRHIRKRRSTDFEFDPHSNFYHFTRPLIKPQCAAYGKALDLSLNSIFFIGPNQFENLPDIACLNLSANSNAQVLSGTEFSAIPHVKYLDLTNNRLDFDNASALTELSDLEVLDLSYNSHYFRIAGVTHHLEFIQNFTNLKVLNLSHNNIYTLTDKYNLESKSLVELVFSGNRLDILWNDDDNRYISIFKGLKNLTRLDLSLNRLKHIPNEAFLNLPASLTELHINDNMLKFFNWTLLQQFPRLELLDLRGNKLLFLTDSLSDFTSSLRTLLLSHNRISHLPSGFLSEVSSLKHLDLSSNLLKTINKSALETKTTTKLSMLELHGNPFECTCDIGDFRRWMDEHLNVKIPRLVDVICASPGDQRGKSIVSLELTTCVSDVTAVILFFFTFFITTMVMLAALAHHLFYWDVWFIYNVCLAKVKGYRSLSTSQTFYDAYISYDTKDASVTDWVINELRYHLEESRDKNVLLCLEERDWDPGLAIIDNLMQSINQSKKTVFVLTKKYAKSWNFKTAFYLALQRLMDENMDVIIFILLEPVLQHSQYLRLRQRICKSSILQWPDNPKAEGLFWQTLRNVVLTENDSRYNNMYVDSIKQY
Description: HEK293-Blue-hTLR-8 cells assay (SEAP reporter, R848 stimulation). It is filed as cell-based. The settings on record: HEK293-Blue-hTLR8 cells, R848, 20 hrs; read-out: HEK/hTLR8 IC50. Summed up:
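HEK293-Blue-hTLR8 cells (NF-κB/AP-1-driven SEAP) incubated 20 h at 37° C with serially diluted compound (1% DMSO) plus R848 stimulation. Supernatant SEAP measured with QUANTI-Blue, 2 h at 37° C, absorbance 620–655 nm.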
Take `Cc1cc(N2CCN(C[C@H]3CN(c4ccc(C#N)c5ncccc45)C[C@@H](C)O3)CC2)nc(N2CCNCC(O)C2)n1` (stereo partly drawn) [Example 66, 5-[(2S,6R)-2-[[4-[2-(6-hydroxy-1,4-diazepan-1-yl)-6-methyl-pyrimidin-4-yl]piperazin-1-yl]methyl]-6-methyl-morpholin-4-yl]quinoline-8-carbonitrile]: the IC50 was 8 nM.
To `Cc1cc(N2CCN(C[C@H]3CN(c4ccc(C#N)n5ncc(F)c45)C[C@@H](C)O3)CC2)nc(N2CCNCC2)n1` [Example 67, 3-Fluoro-4-[(2R,6S)-2-methyl-6-[[4-(6-methyl-2-piperazin-1-yl-pyrimidin-4-yl)piperazin-1-yl]methyl]morpholin-4-yl]pyrazolo[1,5-a]pyridine-7-carbonitrile] belongs 23 nM.
Regarding `Cc1cc(N2CCNCC2)nc(N2CCN(C[C@H]3CN(c4ccc(C#N)c5ncccc45)C[C@@H](C)O3)CC2)n1` [Example 68, 5-[(2R,6S)-2-methyl-6-[[4-(4-methyl-6-piperazin-1-yl-pyrimidin-2-yl)piperazin-1-yl]methyl]morpholin-4-yl]quinoline-8-carbonitrile], the IC50 came to 2 nM.
As to `C[C@@H]1CN(c2ccc(C#N)n3ncc(F)c23)C[C@H](CN2CCN(c3ccc(N[C@H]4CNC[C@H]4F)nc3)CC2)O1` [Example 167, 3-fluoro-4-[(2S,6R)-2-[[4-[6-[[(3S,4R)-4-fluoropyrrolidin-3-yl]amino]-3-pyridyl]piperazin-1-yl]methyl]-6-methyl-morpholin-4-yl]pyrazolo[1,5-a]pyridine-7-carbonitrile], the IC50 worked out at 34 nM.
To `C[C@@H]1CN(c2ccc(C#N)n3ncc(F)c23)C[C@H](CN2CCN(c3ccc(N4C[C@H]5NCCO[C@@H]5C4)nc3)CC2)O1` [Example 168, 4-[(2S,6R)-2-[[4-[6-[(4aR,7aR)-3,4,4a,5,7,7a-hexahydro-2H-pyrrolo[3,4-b][1,4]oxazin-6-yl]-3-pyridyl]piperazin-1-yl]methyl]-6-methyl-morpholin-4-yl]-3-fluoro-pyrazolo[1,5-a]pyridine-7-carbonitrile] belongs 57 nM; to `C[C@@H]1CN(c2ccc(C#N)n3ncc(F)c23)C[C@H](CN2CCN(c3ccc(N4CC5(CNCCO5)C4)nc3)CC2)O1` [Example 169, 3-fluoro-4-[(2R,6S)-2-methyl-6-[[4-[6-(5-oxa-2,8-diazaspiro[3.5]nonan-2-yl)-3-pyridyl]piperazin-1-yl]methyl]morpholin-4-yl]pyrazolo[1,5-a]pyridine-7-carbonitrile], 30 nM; to `C[C@@H]1CN(c2ccc(C#N)n3ncc(F)c23)C[C@H](CN2CCN(c3ccc(N4CC5(CN(C)C5)C4)nc3)CC2)O1` [Example 170, 3-fluoro-4-[(2R,6S)-2-methyl-6-[[4-[6-(6-methyl-2,6-diazaspiro[3.3]heptan-2-yl)-3-pyridyl]piperazin-1-yl]methyl]morpholin-4-yl]pyrazolo[1,5-a]pyridine-7-carbonitrile], 13 nM.
As for `C[C@@H]1CN(c2cc(=O)n(C)c3ncccc23)C[C@H](CN2CC(c3ccc(N4CCNCC4)cc3)C2)O1` [Example 171, 1-methyl-4-[(2R,6S)-2-methyl-6-[[3-(4-piperazin-1-ylphenyl)azetidin-1-yl]methyl]morpholin-4-yl]-1,8-naphthyridin-2-one], the IC50 was 129 nM.
The same measure for `C[C@@H]1CN(c2cc(=O)n(C)c3ncccc23)C[C@H](CN2CC(c3ccc(N4CC5(CNCCO5)C4)cc3)C2)O1` [Example 173, 1-methyl-4-[(2R,6S)-2-methyl-6-[[3-[4-(5-oxa-2,8-diazaspiro[3.5]nonan-2-yl)phenyl]azetidin-1-yl]methyl]morpholin-4-yl]-1,8-naphthyridin-2-one]: 74 nM; for `C[C@@H]1CN(c2ccc(C#N)n3ncc(F)c23)C[C@H](CN2CCN(c3ccc(N4CC[C@@H](N)[C@H](F)C4)nc3)CC2)O1` [Example 175, 4-[(2S,6R)-2-[[4-[6-[(3R,4R)-4-amino-3-fluoro-1-piperidyl]-3-pyridyl]piperazin-1-yl]methyl]-6-methyl-morpholin-4-yl]-3-fluoro-pyrazolo[1,5-a]pyridine-7-carbonitrile]: 12 nM; for `C[C@@H]1CN(c2cc(=O)n(C)c3ncccc23)C[C@H](CN2CC(c3ccc(N4CC(C)(N)C4)cc3)C2)O1` [Example 176, 4-[(2S,6R)-2-[[3-[4-(3-amino-3-methyl-azetidin-1-yl)phenyl]azetidin-1-yl]methyl]-6-methyl-morpholin-4-yl]-1-methyl-1,8-naphthyridin-2-one]: 323 nM.
For `C[C@@H]1CN(c2ccc(C#N)n3ncc(F)c23)C[C@H](CN2CCN(c3ccc([C@@H]4CNCCO4)cc3)CC2)O1` [Example 177, 3-fluoro-4-[(2R,6S)-2-methyl-6-[[4-[4-[(2R)-morpholin-2-yl]phenyl]piperazin-1-yl]methyl]morpholin-4-yl]pyrazolo[1,5-a]pyridine-7-carbonitrile], the IC50 is 27 nM.
Turning to `C[C@@H]1CN(c2ccc(C#N)n3ncc(F)c23)C[C@H](CN2CCN(c3ccc(N4CCOC5(CNC5)C4)nc3)CC2)O1` [Example 178, 3-fluoro-4-[(2R,6S)-2-methyl-6-[[4-[6-(5-oxa-2,8-diazaspiro[3.5]nonan-8-yl)-3-pyridyl]piperazin-1-yl]methyl]morpholin-4-yl]pyrazolo[1,5-a]pyridine-7-carbonitrile], the IC50 came to 91 nM.
As for `C[C@@H]1CN(c2ccc(C#N)n3ncc(F)c23)C[C@H](CN2CCN(c3ccc(N4CC5(CCN5)C4)nc3)CC2)O1` [Example 179, 4-[(2S,6R)-2-[[4-[6-(1,6-diazaspiro[3.3]heptan-6-yl)-3-pyridyl]piperazin-1-yl]methyl]-6-methyl-morpholin-4-yl]-3-fluoro-pyrazolo[1,5-a]pyridine-7-carbonitrile], the IC50 was 54 nM.
Take `C[C@@H]1CN(c2cc(=O)n(C)c3ncccc23)C[C@H](CN2CC(c3ccc(N4CC5(CN(C)C5)C4)cc3)C2)O1` [Example 180, 1-methyl-4-[(2R,6S)-2-methyl-6-[[3-[4-(6-methyl-2,6-diazaspiro[3.3]heptan-2-yl)phenyl]azetidin-1-yl]methyl]morpholin-4-yl]-1,8-naphthyridin-2-one]: the IC50 turned out to be 77 nM.
With `C[C@@H]1CN(c2cc(=O)n(C)c3ncccc23)C[C@H](CN2CC(c3ccc(N4C[C@H]5NCCO[C@@H]5C4)cc3)C2)O1` [Example 182, 4-[(2S,6R)-2-[[3-[4-[(4aR,7aR)-3,4,4a,5,7,7a-hexahydro-2H-pyrrolo[3,4-b][1,4]oxazin-6-yl]phenyl]azetidin-1-yl]methyl]-6-methyl-morpholin-4-yl]-1-methyl-1,8-naphthyridin-2-one], the IC50 is 51 nM.
Turning to `C[C@@H]1CN(c2ccc(C#N)n3ncc(F)c23)C[C@H](CN2CCN(c3ccc([C@@H]4CNCCO4)c(F)c3)CC2)O1` [Example 184, 3-fluoro-4-[(2S,6R)-2-[[4-[3-fluoro-4-[(2R)-morpholin-2-yl]phenyl]piperazin-1-yl]methyl]-6-methyl-morpholin-4-yl]pyrazolo[1,5-a]pyridine-7-carbonitrile], the IC50 amounted to 14 nM.
On to `C[C@@H]1CN(c2ccc(C#N)n3ncc(F)c23)C[C@H](CN2CCN(c3ccc(C4(C)CNCCO4)cc3)CC2)O1` (stereo partly drawn) [Example 185, 3-fluoro-4-[(2R,6S)-2-methyl-6-[[4-[4-(2-methylmorpholin-2-yl)phenyl]piperazin-1-yl]methyl]morpholin-4-yl]pyrazolo[1,5-a]pyridine-7-carbonitrile], for which the IC50 is 33 nM.
Turning to `C[C@@H]1CN(c2ccc(C#N)n3ncc(F)c23)C[C@H](CN2CCN(c3ccc(C[C@@H]4CNCCO4)cc3)CC2)O1` [Example 186, 3-fluoro-4-[(2R,6S)-2-methyl-6-[[4-[4-[[(2R)-morpholin-2-yl]methyl]phenyl]piperazin-1-yl]methyl]morpholin-4-yl]pyrazolo[1,5-a]pyridine-7-carbonitrile], the IC50 was 23 nM.
